In brackets after ≈: the same amount, converted by molar mass. A value given as a limit tells only on which side of the number the result lay.

Type in all cases: functional
In assay [1] the test system is Streptococcus pyogenes. In words: Antimicrobial activity against inducible macrolide, lincosamide, streptogramin-resistant Streptococcus pyogenes Finland 11.
The subject of assay [2] is Staphylococcus aureus. In words: Antimicrobial activity against macrolide-sensitive Staphylococcus aureus ATCC 13709.
Assay [3] relates to Streptococcus pneumoniae. In words: Antimicrobial activity against macrolide-resistant Streptococcus pneumoniae Ci137.
The subject of assay [4] is Streptococcus pyogenes. In words: Antimicrobial activity against macrolide-sensitive Streptococcus pyogenes 3665.
For assay [5], the system named is Streptococcus pneumoniae. In words: Antimicrobial activity against macrolide-sensitive Streptococcus pneumoniae SPO 30.
A further assay has as its system Haemophilus influenzae. In words: Antimicrobial activity against Haemophilus influenzae ATCC 49247.
The subject of assay [6] is Streptococcus pneumoniae. Nature of the assay: Antimicrobial activity against inducible macrolide and constitutive lincosamide, streptogramin-resistant Streptococcus pneumoniae 4636.
In assay [7] the test system is Streptococcus pneumoniae. In words: Antimicrobial activity against inducible macrolide, lincosamide, streptogramin-resistant Streptococcus pneumoniae 134 GRM.
The test system of assay [8] is Streptococcus pneumoniae. In words: Antimicrobial activity against inducible macrolide and constitutive lincosamide, streptogramin-resistant Streptococcus pneumoniae 58 Spain.
Assay [9] has as its system Staphylococcus aureus. In words: Antimicrobial activity against macrolide-sensitive Staphylococcus aureus PK1.
Assay [10] has as its system Streptococcus pyogenes. Nature of the assay: Antimicrobial activity against inducible macrolide and constitutive lincosamide, streptogramin-resistant Streptococcus pyogenes 166 GR-micro.
Assay [11] deals with Streptococcus pyogenes. In words: Antimicrobial activity against inducible macrolide-resistant Streptococcus pyogenes Finland 3.

As for `CC[C@H]1OC(=O)[C@H](C)[C@@H](O[C@H]2C[C@@](C)(OC)[C@@H](OC(=O)CCNCCNc3cncc([N+](=O)[O-])c3)[C@H](C)O2)[C@H](C)[C@@H](O[C@@H]2O[C@H](C)C[C@H](N(C)C)[C@H]2O)[C@](C)(OC)C[C@@H](C)NC(=O)[C@H](C)[C@@H](O)[C@]1(C)O`, the MIC was 0.25 µg/mL (≈ 0.25 µM) against Streptococcus pyogenes [1]; 0.25 µg/mL (≈ 0.25 µM) against Staphylococcus aureus [2]; 0.5 µg/mL (≈ 0.5 µM) in the assay on Streptococcus pneumoniae [3]; below 0.13 µg/mL with Streptococcus pyogenes [4]; below 0.13 µg/mL in the assay with Streptococcus pneumoniae [5]; 4 µg/mL (≈ 4 µM) in the assay on Haemophilus influenzae. In the assay with Streptococcus pneumoniae [6], this compound registered an MIC of 4 µg/mL (≈ 4 µM).

Turning to `CC[C@H]1OC(=O)[C@H](C)[C@@H](O[C@H]2C[C@@](C)(OC)[C@@H](OC(=O)CCN3CCN(c4cc5c(cc4F)c(=O)ccn5C4CC4)CC3)[C@H](C)O2)[C@H](C)[C@@H](O[C@@H]2O[C@H](C)C[C@H](N(C)C)[C@H]2O)[C@](C)(O)C[C@@H](C)NC(=O)[C@H](C)[C@@H](O)[C@]1(C)O`, the MIC against Streptococcus pyogenes [1] was 0.5 µg/mL (≈ 0.459 µM); in the assay on Staphylococcus aureus [2] it was 1 µg/mL (≈ 0.917 µM); against Streptococcus pneumoniae [7], above 32 µg/mL; in the assay on Streptococcus pneumoniae [3], below 0.13 µg/mL; in the assay on Haemophilus influenzae, 8 µg/mL (≈ 7.34 µM); against Streptococcus pneumoniae [8], above 32 µg/mL.

On to `CC[C@H]1OC(=O)[C@H](C)[C@@H](O[C@H]2C[C@@](C)(OC)[C@@H](OC(=O)CCN3CCN(c4cc5c(cc4F)c(=O)ccn5C4CC4)CC3)[C@H](C)O2)[C@H](C)[C@@H](O[C@@H]2O[C@H](C)C[C@H](N(C)C)[C@H]2O)[C@](C)(OC)C[C@@H](C)NC(=O)[C@H](C)[C@@H](O)[C@]1(C)O`, for which the MIC against Staphylococcus aureus [9] was 8 µg/mL (≈ 7.24 µM); against Streptococcus pyogenes [1], 1 µg/mL (≈ 0.905 µM); in the assay on Staphylococcus aureus [2], 1 µg/mL (≈ 0.905 µM); in the assay on Streptococcus pneumoniae [7], above 64 µg/mL; in the assay with Streptococcus pneumoniae [3], below 0.13 µg/mL; in the assay on Streptococcus pyogenes [10], above 64 µg/mL. Besides, the values for the MIC in the assay with Haemophilus influenzae, with Streptococcus pyogenes [11] and against Streptococcus pneumoniae [8] were 8 µg/mL (≈ 7.24 µM), below 0.13 µg/mL and 64 µg/mL (≈ 58 µM), respectively.

On to `CC[C@H]1OC(=O)[C@H](C)[C@@H](O[C@H]2C[C@@](C)(OC)[C@@H](OC(=O)CCN3CCN(c4cc5c(cc4F)c(=O)c(C(=O)O)cn5C4CC4)CC3)[C@H](C)O2)[C@H](C)[C@@H](O[C@@H]2O[C@H](C)C[C@H](N(C)C)[C@H]2O)[C@](C)(OC)C[C@@H](C)NC(=O)[C@H](C)[C@@H](O)[C@]1(C)O`, for which the MIC in the assay with Staphylococcus aureus [9] is 2 µg/mL (≈ 1.74 µM); with Streptococcus pyogenes [1] it was 0.5 µg/mL (≈ 0.435 µM); in the assay with Staphylococcus aureus [2], 1 µg/mL (≈ 0.871 µM); in the assay on Streptococcus pneumoniae [7] it was 8 µg/mL (≈ 6.97 µM); in the assay on Streptococcus pneumoniae [3], below 0.13 µg/mL; in the assay on Streptococcus pyogenes [10], 8 µg/mL (≈ 6.97 µM). Further, the MIC against Haemophilus influenzae amounted to 1 µg/mL (≈ 0.871 µM); against Streptococcus pyogenes [11] it was 0.5 µg/mL (≈ 0.435 µM); against Streptococcus pneumoniae [8], 16 µg/mL (≈ 13.9 µM).

As to `CC[C@H]1OC(=O)[C@H](C)[C@@H](O[C@H]2C[C@@](C)(OC)[C@@H](OC(=O)CCNCCNc3cc4c(cc3F)c(=O)c(C(=O)O)cn4C3CC3)[C@H](C)O2)[C@H](C)[C@@H](O[C@@H]2O[C@H](C)C[C@H](N(C)C)[C@H]2O)[C@](C)(O)C[C@@H](C)NC(=O)[C@H](C)[C@@H](O)[C@]1(C)O`, the MIC was 0.5 µg/mL (≈ 0.451 µM) in the assay with Staphylococcus aureus [9]; below 0.13 µg/mL with Streptococcus pyogenes [1]; 0.25 µg/mL (≈ 0.226 µM) with Staphylococcus aureus [2]; below 0.13 µg/mL against Streptococcus pneumoniae [7]; below 0.13 µg/mL with Streptococcus pneumoniae [3]; 0.25 µg/mL (≈ 0.226 µM) against Streptococcus pyogenes [10]. The values for the MIC in the assay on Streptococcus pyogenes [11] and against Streptococcus pneumoniae [8] were 0.25 µg/mL (≈ 0.226 µM) and below 0.13 µg/mL, respectively.

With `CC[C@H]1OC(=O)[C@H](C)[C@@H](O[C@H]2C[C@@](C)(OC)[C@@H](OC(=O)CCNCCNc3cc4c(cc3F)c(=O)c(C(=O)O)cn4C3CC3)[C@H](C)O2)[C@H](C)[C@@H](O[C@@H]2O[C@H](C)C[C@H](N(C)C)[C@H]2O)[C@](C)(OC)C[C@@H](C)NC(=O)[C@H](C)[C@@H](O)[C@]1(C)O`, the MIC against Staphylococcus aureus [9] was below 0.13 µg/mL; with Streptococcus pyogenes [1], below 0.13 µg/mL; in the assay on Staphylococcus aureus [2], below 0.13 µg/mL; in the assay with Streptococcus pneumoniae [7], below 0.13 µg/mL; with Streptococcus pneumoniae [3], below 0.13 µg/mL; in the assay with Streptococcus pyogenes [10], 0.25 µg/mL (≈ 0.223 µM). In addition, the MIC in the assay on Haemophilus influenzae was 4 µg/mL (≈ 3.56 µM); in the assay on Streptococcus pyogenes [11], 0.5 µg/mL (≈ 0.445 µM); against Streptococcus pneumoniae [8], below 0.13 µg/mL.

Turning to `NCCNc1cc2c(cc1F)c(=O)c(C(=O)O)cn2C1CC1`, the MIC with Staphylococcus aureus [9], in the assay with Streptococcus pyogenes [1], with Staphylococcus aureus [2], in the assay on Streptococcus pneumoniae [7], against Streptococcus pneumoniae [3] and in the assay with Streptococcus pyogenes [10] was above 64 µg/mL throughout. Further, the MIC in the assay on Haemophilus influenzae, in the assay on Streptococcus pyogenes [11] and in the assay on Streptococcus pneumoniae [8] was above 64 µg/mL in each case.

In the case of `CC[C@H]1OC(=O)[C@H](C)[C@@H](O[C@H]2C[C@@](C)(OC)[C@@H](O)[C@H](C)O2)[C@H](C)[C@@H](O[C@@H]2O[C@H](C)C[C@H](N(C)C)[C@H]2O)[C@](C)(O)C[C@@H](C)NC(=O)[C@H](C)[C@@H](O)[C@]1(C)O`, the MIC with Staphylococcus aureus [9] was above 64 µg/mL; in the assay with Streptococcus pyogenes [1] it was 16 µg/mL (≈ 21.4 µM); in the assay with Staphylococcus aureus [2], 1 µg/mL (≈ 1.34 µM); against Streptococcus pneumoniae [7] it was above 64 µg/mL; with Streptococcus pneumoniae [3], 32 µg/mL (≈ 42.7 µM); in the assay with Streptococcus pyogenes [10] it was above 64 µg/mL. The MIC with Streptococcus pyogenes [4] was below 0.13 µg/mL; with Streptococcus pneumoniae [5] it was below 0.13 µg/mL; with Haemophilus influenzae it was 2 µg/mL (≈ 2.67 µM); in the assay on Streptococcus pyogenes [11], 32 µg/mL (≈ 42.7 µM); in the assay with Streptococcus pneumoniae [8] it was above 64 µg/mL; with Streptococcus pneumoniae [6], above 64 µg/mL.

Take `CC[C@H]1OC(=O)[C@H](C)[C@@H](O[C@H]2C[C@@](C)(OC)[C@@H](O)[C@H](C)O2)[C@H](C)[C@@H](O[C@@H]2O[C@H](C)C[C@H](N(C)C)[C@H]2O)[C@](C)(OC)C[C@@H](C)NC(=O)[C@H](C)[C@@H](O)[C@]1(C)O`: the MIC was above 64 µg/mL against Staphylococcus aureus [9]; 8 µg/mL (≈ 10.5 µM) in the assay with Streptococcus pyogenes [1]; 0.5 µg/mL (≈ 0.655 µM) with Staphylococcus aureus [2]; above 64 µg/mL against Streptococcus pneumoniae [7]; 16 µg/mL (≈ 21 µM) against Streptococcus pneumoniae [3]; above 64 µg/mL with Streptococcus pyogenes [10]. The MIC is below 0.13 µg/mL with Streptococcus pyogenes [4]; below 0.13 µg/mL with Streptococcus pneumoniae [5]; 4 µg/mL (≈ 5.24 µM) against Haemophilus influenzae; 32 µg/mL (≈ 41.9 µM) against Streptococcus pyogenes [11]; above 64 µg/mL against Streptococcus pneumoniae [8]; above 64 µg/mL against Streptococcus pneumoniae [6].

In the case of `CC[C@H]1OC(=O)[C@H](C)[C@@H](O[C@H]2C[C@@](C)(OC)[C@@H](O)[C@H](C)O2)[C@H](C)[C@@H](O[C@@H]2O[C@H](C)C[C@H](N(C)C)[C@H]2O)[C@](C)(O)C[C@@H](C)CN(C)[C@H](C)[C@@H](O)[C@]1(C)O` [AZITHROMYCIN], the MIC is above 64 µg/mL in the assay on Staphylococcus aureus [9]; 16 µg/mL (≈ 21.4 µM) against Streptococcus pyogenes [1]; 0.5 µg/mL (≈ 0.668 µM) with Staphylococcus aureus [2]; above 64 µg/mL in the assay on Streptococcus pneumoniae [7]; 8 µg/mL (≈ 10.7 µM) against Streptococcus pneumoniae [3]; above 64 µg/mL against Streptococcus pyogenes [10]. The MIC is below 0.13 µg/mL against Streptococcus pyogenes [4]; below 0.13 µg/mL in the assay on Streptococcus pneumoniae [5]; 1 µg/mL (≈ 1.34 µM) against Haemophilus influenzae; 8 µg/mL (≈ 10.7 µM) in the assay on Streptococcus pyogenes [11]; above 64 µg/mL against Streptococcus pneumoniae [8]; above 64 µg/mL in the assay on Streptococcus pneumoniae [6].

As to `CC[C@H]1OC(=O)[C@H](C)C(=O)[C@H](C)[C@@H](O[C@@H]2O[C@H](C)C[C@H](N(C)C)[C@H]2O)[C@](C)(OC)C[C@@H](C)C(=O)[C@H](C)[C@H]2N(CCCCn3cnc(-c4cccnc4)c3)C(=O)O[C@]12C` [TELITHROMYCIN], the MIC in the assay with Staphylococcus aureus [9] was 0.125 µg/mL (≈ 0.154 µM); against Streptococcus pyogenes [1], 0.06 µg/mL (≈ 0.0739 µM); in the assay on Staphylococcus aureus [2] it was below 0.06 µg/mL; in the assay with Streptococcus pneumoniae [7], 0.25 µg/mL (≈ 0.308 µM); in the assay with Streptococcus pneumoniae [3], 0.25 µg/mL (≈ 0.308 µM); against Streptococcus pyogenes [10], 16 µg/mL (≈ 19.7 µM). Further, the MIC against Haemophilus influenzae turned out to be 2 µg/mL (≈ 2.46 µM); with Streptococcus pyogenes [11], 0.5 µg/mL (≈ 0.616 µM); in the assay on Streptococcus pneumoniae [8], 0.25 µg/mL (≈ 0.308 µM).

Source of the values: ChEMBL document CHEMBL1155520, “Novel 8a-aza-8a-homoerythromycin--4''-(3-substituted-amino)propionates with broad spectrum antibacterial activity” (2010).
